Assay results reported in article PMC8696185, “Purification and Characterization of Plantaricin YKX and Assessment of Its Inhibitory Activity Against Alicyclobacillus spp” (Frontiers in Microbiology, 2021).
Bridges are numbered along the chain shown (N, C = ends). Where no end group is shown, it is not given here. [ ]: non-standard residue; d: D form. Dhb = C/C=C(\N)C(=O)O; Dha = C=C(N)C(=O)O

Key:
[1] = test system: luxS gene of A. acidoterrestris; assay: RT-qPCR, transcription of luxS; format: cell-based, Alicyclobacillus acidoterrestris; conditions: co-cultured at 0.5 × MIC, 0.7 × MIC, and 0.9 × MIC, overnight incubation
Experimental: To verify the effect of plantaricin YKX on the QS system, Real-Time Quantitative PCR (RT-qPCR) was used to detect the transcription level changes of the gene (luxS) encoding a QS signal (Al-2) synthesis enzyme (LuxS) in A. acidoterrestris. The mid-logarithmic phase cells of A. acidoterrestris were treated with plantaricin YKX at 0.5 ×, 0.7 ×, or 0.9 × MIC. After overnight incubation, RNA was extracted according to the Trizol method.
The reverse transcription reaction system (10 μL) contained: Total RNA 2 μL; dNTP 0.5 μL; Random primers 0.5 μL; and distilled water without RNAase 4 μL. All samples were maintained at 70°C for 5 min and then kept immediately in an ice bath. 5X reverse transcription buffer 2 μL, RNAase inhibitor 0.5 μL, and MMLV reverse transcription enzyme 0.5 μL were added immediately. Thus, the reverse transcription conditions were: 30°C for 10 min, 42°C for 1 h, 70°C for 15 min, and 4°C forever. After the reverse transcription reaction, the DNA templates were diluted 5 times and stored at −20°C until used.
PCR reaction included: upstream primer (10 μM) 0.2 μL, downstream primer (10 μM) 0.2 μL, 2 × Ultra SYBR Mixture 5 μL, ddH2O 3.6 μL, DNA templates 1 μL. The PCR reaction parameters were: 95°C for 10 min, 95°C for 15 s, 60°C for 1 min, 40 cycles. Primers (5′-[…]-3′; 5′-[…]-3′) were designed according to the gene sequence of luxS by the Primer 5.0 software.

[2] = test system: A. acidoterrestris ATCC 3922; assay: Kill kinetics (time-killing curves); format: cell-based, Alicyclobacillus acidoterrestris; conditions: for Time within which all cells were inactivated: at the MICs (1 × MIC)
Text: FIGURE 3 Antibacterial activity of plantaricin YKX against A. acidoterrestris.

Alicyclobacillus spp. = conditions: literature value; ref Yamazaki et al., 2000; cited from earlier work
Experimental: On the other hand, the MICs of plantaricin YKX and nisin inactivated all cells within 180 min.

[3] = test system: A. acidoterrestris DSM3922 as indicator stain; assay: Effect of enzymes on antibacterial activity (stability); format: in vitro ADME, Alicyclobacillus acidoterrestris; design: key to Antibacterial ability after Lipase, α-AMYLASE / Antibacterial ability after Trypsin, pepsin: Antimicrobial activity +: there is a clear inhibition zone.; Antimicrobial activity –: there is no inhibition zone; key to Antibacterial ability after Proteinase K, papain, α-chymotrypsin: −: Antimicrobial activity –: there is no inhibition zone; conditions: enzyme 1.0 mg/mL, 37°C for 30 min, agar well diffusion
Experimental: (§1) The effect of temperature (60, 80, or 100°C) on the activity of purified plantaricin YKX was analyzed within a certain time (10, 20, or 30 min) ([An et al., 2017]). The long-term stability was investigated at 37°C for […] and at 4°C for 3 months ([Yue et al., 2013]). The impact of pH on plantaricin YKX was analyzed by adjusting pH to 2–10 with 1 M HCl and 1 M NaOH solutions and determining residual activities after maintaining at 37°C for 2 h ([Yue et al., 2013]). The effect of enzymes on the antibacterial activity of plantaricin YKX was determined following incubation with enzymes lipase [pH 7.0, 10 mM phosphate-buffered saline (PBS)], α-amylase (pH 7.0, 10 mM PBS), trypsin (pH 7.5, 10 mM PBS), proteinase K (pH 7.5, 50 mM Tris-HCl), papain (pH 7.5, 10 mM PBS), and pepsin (pH 3.0, 0.1 M HCl) at 37°C for 30 min with their optimal pH and a final concentration of 1.0 mg/mL. The enzymes were inactivated by heating at 100°C for 5 min, and the pH was then adjusted to pH 6.0 ([Yue et al., 2013]). Plantaricin YKX without any treatments was employed as a control. Agar well diffusion assay was utilized to determine the antibacterial activity ([Pei et al., 2020]).

[4] = test system: A. acidoterrestris DSM3922; assay: Guaiacol production, HPLC; format: cell-based, Alicyclobacillus acidoterrestris; conditions: AAM broth, 45°C, HPLC 275 nm, control 20.6 μg/L
Experimental: A. acidoterrestris DSM3922 was inoculated in AAM broth containing plantaricin YKX at 0.5 ×, 0.7 × or 0.9 × MIC (control without plantaricin YKX) and cultured at 45°C. Samples were tested for OD600 after 24 h. After the samples were centrifuged at 8,000 g at 4°C and passed through 0.22 μm filter membrane, the guaiacol content was determined with an analytical HPLC dual pump Shimadzu LC-20 AB system equipped with UltimateXB-C18 column (4.6 × 250 mm, particle size 5 μm, Kyoto, Japan) ([Lin et al., 2006]). The mobile phase was 30% (v/v) acetonitrile in 0.1% (v/v) formic acid. The column temperature was maintained at 40°C. The mobile phase flow rate was set at 1 mL/min. The detection wavelength was 275 nm.

[5] = test system: Pseudomonas aeruginosa CICC 21636; assay: Minimal inhibitory concentration (MIC); format: cell-based; conditions: twofold serial dilution, 96-well plate, 24 h at 30°C, OD600; highest conc. not given in μg/mL (stock 1,024 IU/mL)
Experimental: (§2) The minimal inhibitory concentration (MIC) of plantaricin YKX toward indicator strains was measured according to the [Clinical and Laboratory Standards Institute (2012)]. Indicator strains in the mid-logarithmic growth phase were adjusted to the OD600 of 0.5 and diluted 100-fold with appropriate media. First, the plantaricin YKX solution (1,024 IU/mL) was twofold serially diluted with distilled water. Next, 100 μL each indicator strain suspension and aliquots of plantaricin YKX solution were incubated [1:1 (v/v) ratio] in a 96-well plate for 24 h at 45°C with Alicyclobacillus spp. as indicator strain and at 30°C for other indicator strains listed in Table 1. The efficacy of nisin (> 90% pure, J & K Chemical Technology) was also determined. As a control, distilled water was added to the indicator strains suspensions. Following incubation, the MICs were determined by measuring the OD600 using a microplate reader (SpectraMax 190, Molecular Devices, CA, United States).

[6] = test system: Enterobacter cloacae CICC 21539; assay: Minimal inhibitory concentration (MIC); format: cell-based; conditions: twofold serial dilution, 96-well plate, 24 h at 30°C, OD600; highest conc. not given in μg/mL (stock 1,024 IU/mL)
Experimental: as §2

[7] = test system: Aspergillus niger CICC 2124; assay: Minimal inhibitory concentration (MIC); format: cell-based; conditions: twofold serial dilution, 96-well plate, 24 h at 30°C, OD600; highest conc. not given in μg/mL (stock 1,024 IU/mL)
Experimental: as §2

[8] = test system: Saccharomyces cerevisiae CICC 1002; assay: Minimal inhibitory concentration (MIC); format: cell-based; conditions: twofold serial dilution, 96-well plate, 24 h at 30°C, OD600; highest conc. not given in μg/mL (stock 1,024 IU/mL)
Experimental: as §2

[9] = test system: Candida albicans CICC 1965; assay: Minimal inhibitory concentration (MIC); format: cell-based; conditions: twofold serial dilution, 96-well plate, 24 h at 30°C, OD600; highest conc. not given in μg/mL (stock 1,024 IU/mL)
Experimental: as §2

[10] = test system: Salmonella paratyphi β CICC 10437; assay: Minimal inhibitory concentration (MIC); format: cell-based; conditions: twofold serial dilution, 96-well plate, 24 h at 30°C, OD600; highest conc. not given in μg/mL (stock 1,024 IU/mL)
Experimental: as §2

[11] = test system: A. acidoterrestris DSM3922 cells; assay: Flow cytometry, propidium iodide uptake (membrane integrity); format: cell-based, Alicyclobacillus acidoterrestris; conditions: 2 × MIC, incubation for 30 min, 45°C, propidium iodide 10 μg/mL
Experimental: Log phase A. acidoterrestris DSM3922 cells were incubated with plantaricin YKX at 0.5×, 1×, or 2× MIC (control: cells treated with PBS) at 45°C for 15 min. Next, they were centrifuged, rinsed, and treated with propidium iodide (10 μg/mL) for 15 min at 45°C ([Gut et al., 2011]). After removing the unbound stain, the fluorescence intensities were analyzed by an AccuriC6 flow cytometer (BD Biosciences, MI, United States). Forty thousand events were acquired per sample and detected at excitation (488 nm) and emission wavelengths (525 nm).

[12] = test system: E. coli CICC10302 as indicator stain; assay: Heat, storage and pH stability, residual antibacterial activity; format: physicochemical, Escherichia coli; design: key to Antibacterial ability after pH 2–7 / Antibacterial ability after 60, 80, and 100°C / Antibacterial ability after 37°C for 14 d / Antibacterial ability after 2 months at 4°C: Antimicrobial activity +: there is a clear inhibition zone.; Antimicrobial activity –: there is no inhibition zone; key to Antibacterial ability after pH 9–10: −: Antimicrobial activity –: there is no inhibition zone; conditions: agar well diffusion
Experimental: as §1

[13] = test system: A. acidoterrestris DSM3922 as indicator stain; assay: as above; format: physicochemical, Alicyclobacillus acidoterrestris; design: key to Antibacterial ability after pH 2–7 / Antibacterial ability after 60, 80, and 100°C / Antibacterial ability after 37°C for 14 d / Antibacterial ability after 2 months at 4°C: Antimicrobial activity +: there is a clear inhibition zone.; Antimicrobial activity –: there is no inhibition zone; key to Antibacterial ability after pH 9–10: −: Antimicrobial activity –: there is no inhibition zone; conditions: agar well diffusion
Experimental: as §1

[14] = Heat, storage and pH stability (indicator not given); format: physicochemical
Experimental: as §1

[15] = test system: A. acidoterrestris DSM3922 endospores; assay: Endospore germination, microscopic counting; format: cell-based, Alicyclobacillus acidoterrestris; conditions: 2 h post-germination treatment, untreated 43.6%
[16] = test system: Clostridium butyricum CICC 10350; conditions: CICC 10350, 24 h
[17] = test system: E. coli CICC10302 as indicator stain; assay: Effect of enzymes on antibacterial activity (stability); format: in vitro ADME, Escherichia coli; design: key to Antibacterial ability after Lipase, α-AMYLASE / Antibacterial ability after Trypsin, pepsin: Antimicrobial activity +: there is a clear inhibition zone.; Antimicrobial activity –: there is no inhibition zone; key to Antibacterial ability after Proteinase K, papain, α-chymotrypsin: −: Antimicrobial activity –: there is no inhibition zone; conditions: enzyme 1.0 mg/mL, 37°C for 30 min, agar well diffusion
Experimental: as §1

[18] = optimal pH (proteinase K pH 7.5 Tris-HCl, papain pH 7.5 PBS)
[19] = pH 7.0, 10 mM PBS, enzyme inactivated 100°C 5 min, pH adjusted to 6.0
[20] = trypsin pH 7.5 10 mM PBS, pepsin pH 3.0 0.1 M HCl
[21] = pH adjusted with 1 M HCl / 1 M NaOH, 37°C for 2 h

Substance: nisin: typical class I (lanthionine-based) bacteriocin, > 90% pure, J & K Chemical Technology (I[Dhb]SI[Dha]LCTPGCKTGALMGCNMKTATCHCSIHV[Dha]K; bridge 23-26, 13-19, 8-11, 25-28, 3-7; not fully specified (residues 3, 8, 13, 23, 25, bridges); UniProt P13068 24-57, looked up) [reference compound]
- Expression of the luxS gene [1]: did not show a similar function
- Time within which all cells were inactivated [2]: ≤ 180 min
- MIC (Alicyclobacillus spp.): 16 to 32 µg/mL

Substance: KYGNGLSRIFSALK [plantaricin YKX]
- Expression of the luxS gene [1]: increased significantly
- Antibacterial ability after Proteinase K, papain, α-chymotrypsin [3, 18]: –
- Antibacterial ability after Lipase, α-AMYLASE [3, 19]: +
- Antibacterial ability after Trypsin, pepsin [3, 20]: +
- Production of guaiacol ([4]; 0.5 × MIC): 16.8 µg/L
- Production of guaiacol ([4]; 0.7 × MIC): 10.1 µg/L
- Production of guaiacol ([4]; 0.9 × MIC): 8.9 µg/L
- MICs [5]: > highest conc. tested
- MICs [6]: > highest conc. tested
- MICs [7]: > highest conc. tested
- MICs [8]: > highest conc. tested
- MICs [9]: > highest conc. tested
- MICs [10]: > highest conc. tested
- Time within which the number of cells was substantially decreased ([2]; 2 MIC): ≤ 30 min
- Time within which all cells were inactivated [2]: ≤ 180 min
- Proportion of PI-stained cells [11]: 91.6%
- Antibacterial ability after 60, 80, and 100°C ([12]; heated for 10, 20, or 30 min): +
- Antibacterial ability after 2 months at 4°C ([12]; long-term storage): +
- Antibacterial ability after 37°C for 14 d ([12]; long-term storage): +
- Antibacterial ability after pH 2–7 [12, 21]: +
- Antibacterial ability after pH 9–10 [12, 21]: –
- Antibacterial ability after 60, 80, and 100°C ([13]; heated for 10, 20, or 30 min): +
- Antibacterial ability after 2 months at 4°C ([13]; long-term storage): +
- Antibacterial ability after 37°C for 14 d ([13]; long-term storage): +
- Antibacterial ability after pH 2–7 [13, 21]: +
- Antibacterial ability after pH 9–10 [13, 21]: –
- Antibacterial activity after storage ([14]; 3 months at 4°C, agar well diffusion): did not alter its antibacterial activity
- pH at which the activity was lost ([14]; 37°C for 2 h at adjusted pH, residual activity by agar well diffusion): 9.0
- Antibacterial activity after storage ([14]; 37°C for up to 14 days, agar well diffusion): did not alter its antibacterial activity
- pH range in which active (abstract) ([14]; as stated in the abstract): 3–8
- Heat stability, activity after heating ([14]; heating at 60, 80, or 100°C (10, 20, or 30 min), agar well diffusion): retaining activity
- Germination rate of spores ([15]; 0.5 × MIC): 55.4%
- Germination rate of spores ([15]; 0.7 × MIC): 70.5%
- Germination rate of spores ([15]; 0.9 × MIC): 81.7%
- MICs [16]: 32 µg/mL
- Antibacterial ability after Proteinase K, papain, α-chymotrypsin [17, 18]: –
- Antibacterial ability after Lipase, α-AMYLASE [17, 19]: +
- Antibacterial ability after Trypsin, pepsin [17, 20]: +
